Source: PMC4633953, “FR171456 is a specific inhibitor of mammalian NSDHL and yeast Erg26p” (Nature Communications, 2015)

Assays:
F. solani = experiment: Combination with clinical antifungal agents (Loewe synergy, growth by OD530); format: cell-based; settings: in presence of FR171456 6.67 and 20 μM
Description: incubated for 24 h in increasing combined doses of FR171456 and Amphotericin B, and growth
assessed by OD530. (a) Normalised growth rates plotted as % inhibition of growth. (b) Loewe excess
heat map showing difference between predicted scores based upon the addition of each agent
alone and the actual values detected plotted as difference in % of inhibition. (c) Loewe isobologram
- a comparison of the doses of each compound needed to achieve 50% inhibition of proliferation.

Erg26p [1] = target: T1, Erg26p (Saccharomyces cerevisiae, UniProt P53199); settings: wild-type yeast Erg26p ref 32; cited from earlier work
T1 sequence (P53199 1-349): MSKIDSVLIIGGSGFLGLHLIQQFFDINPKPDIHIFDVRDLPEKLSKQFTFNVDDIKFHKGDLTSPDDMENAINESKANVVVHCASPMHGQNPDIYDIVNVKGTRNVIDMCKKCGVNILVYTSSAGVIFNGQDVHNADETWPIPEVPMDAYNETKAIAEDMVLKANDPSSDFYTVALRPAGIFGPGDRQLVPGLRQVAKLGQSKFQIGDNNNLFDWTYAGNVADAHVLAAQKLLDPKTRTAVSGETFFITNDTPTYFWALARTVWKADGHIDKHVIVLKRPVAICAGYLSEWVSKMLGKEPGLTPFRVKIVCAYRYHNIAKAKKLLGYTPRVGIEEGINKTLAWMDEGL

[2] = tested on: ergosterol pathway intermediates in C. albicans SC5314; experiment: Focused metabolomics: 13C-labelled ergosterol pathway intermediates in C. albicans; format: cell-based; settings: increasing doses
Description: For ^13C- labelling studies, the wild type C. albicans strain SC5314 was obtained from ATCC (Manassas, VA) and was cultured at 30 °C in YPD broth (1% yeast extract, 2% peptone, 2% dextrose) or Synthetic Medium (3% glycerol, 0.1% glucose, 65 mM NH4Cl, 1.7 mM NaCl, 7 mM KH2PO4, 1 mM CaCl2, 0.5 mM MgSO4).
Approximately 1.25 × 10^8 C. albicans cells from a saturated YPD culture were inoculated into 100 ml Synthetic Medium (SM) and grown at 30 °C to an OD of 1.0. Cells were washed once in modified SM (25 mM KPO4 pH 7.0, with glucose omitted) and suspended to 5 OD600 units per ml in modified SM.
Labelling reactions were performed in 12-ml glass tubes with PTFE-lined caps (Corning) and containing 1 ml cell suspension (∼6 × 10^7 cells), 10 μl DMSO or 10 μl compound dissolved in DMSO, 12 μl 1M D-Glucose (U^-13C6 glucose), and 10 μl 1 M (1,2^-13C2) sodium acetate (Cambridge Isotope Laboratories, Inc). Before LC-MS analysis, dried lipid extracts were dissolved in 500 μl methanol, vortexed and sonicated for 10 min.
Squalene, ergosterol, lanosterol and zymosterol were quantified using the tandem mass spectrometer API4000 triple quadrupole (AB Sciex) with atmospheric pressure chemical ionization (APCI), interfaced to an Agilent LC.
Cells (∼6 × 10^7) and compounds were preincubated 15 min at 30 °C (without shaking) before the addition of labelled substrates. Labelling was performed at 30 °C with shaking for 4 h. Reactions were stopped by adding 1 ml 30% KOH, 1 ml 100% ethanol, and 0.2 ml 2% pyrogallol. Samples were mixed and then heated at 80 °C for 30 min, then cooled to room temperature. Non-saponifiable lipids were extracted two times in petroleum ether, washed with water, dried under nitrogen gas and stored at −80 °C.
For compound calibration, 2 μM solutions in 0.1% formic acid were directly infused into the mass spectrometer. Ergosterol, lanosterol and zymosterol undergo dehydration and their molecular species are detected as [M+H-H2O]^+ while squalene is detected as [M+H]^+. Supplementary Table 4 lists the multiple reaction monitoring parameters of the sterols and squalene, as well as the ^13C incorporated metabolites. The mass spectrometer source parameters are the following: CUR=40, GS1=60, NC=4.5. TEM=450 CAD=4. A mobile phase of 0.2% formic acid in methanol and isocratic run at 0.4 ml min^−1 was employed to separate the metabolites on a Waters XBridge C18 3.5 μm 2.1 × 50 mm column. The run time was 4.5 min.

[3] = tested on: S. cerevisiae (BY4743 strain); experiment: Yeast growth inhibition dose response (OD600); format: cell-based; settings: Saccharomyces cerevisiae, 14 h, BY4743, 14 h, 30 °C, YPD, 2% DMSO
Description: Figure 2 FR171456 targets Erg26p in S. cerevisiae. (a) Structures of FR171456, and two related triterpenes (compound 1, compound 2). (b) Duplicate 12-point Dose response curves of wild-type diploid yeast with three compounds in a. Strain BY4743 was grown for 14 h at 30 °C in YPD media with 2% DMSO containing a dilution series of FR171456: black; Compound-1: light grey circles, and Compound-2: light grey squares. Y axis: OD600 absorbance indicating yeast growth, x axis: compound concentrations (log10 μM). (c) Haploinsufficiency and homozygous profiling (HIP resp. HOP) for FR171456 at 4 μM. Each mutant strain in the pool is represented by a circle (non-essential genes) or a square (essential genes). The, y axis represents strain sensitivity and x axis represents z-score (specificity). In (d), the z-scores of the HIP pool strains (y axis) plotted against increasing doses of FR171456 (x axis; μM). (e) Relative compound sensitivity profile of the erg26Δ/ERG26 strain across HIP experiments performed with 1,800 diverse small molecule yeast proliferation inhibitors. TEXT PRINTED IN THE PICTURE: (a) FR171456: MW 516.68; S.c. […] IC50 >200 μM | (a) Compound 2: MW 532.68; S.c. IC50 >200 μM

Erg26p [4] = target: T1, Erg26p; experiment: In vitro microsomal Erg26p activity assay (GC-MS)
Description: To test this hypothesis an in vitro microsomal Erg26p activity assay[30] was used. Erg26p activity was directly assessed in the presence of increasing concentrations of FR171456 (10 nM–0.1 mM) in the presence of 150 μM carboxysterol substrate (Fig. 1c) and the cofactor NAD^+ (0.5 mM) followed by GC-MS detection of the product 4α-methyl-cholest-8,24-dien-3-one.
Wild-type yeast (FL200) microsomes were prepared as follows. Yeast cells were disrupted by glass bead homogenization (0.45-mm diameter) in 100 mM phosphate buffer (pH 7.5) containing 1.5 mM reduced glutathione and 30 mM nicotinamide for 8 min at 0 °C[44]. The cell extract was obtained by centrifugation at 10,000 × g for 20 min. Microsomes were then isolated by centrifuging the cell extract supernatant at 100,000 × g for 90 min. The resulting microsomal pellet was resuspended in 100 mM phosphate buffer (pH 7.5) containing 3 mM reduced glutathione and 20% glycerol (v/v) using an Elvehjem–Potter homogenizer. Yeast microsomes (1.2 mg of protein) were incubated in the presence of 4α-carboxy-4β-methyl-cholest-8,24-dien-3β-ol (50–300 mM) and NAD^+ (0.5 mM) for 35–45 min at 30 °C. After addition of coprostanone (2–6 μg) as internal standard, the reactions were extracted as described previously[12]. The extract was analysed by TLC on silica gel and eluted twice with CH2Cl2. The fraction migrating between a standard of 4-desmethyl-sterone (RF= 0.50) and 4,4-dimethyl-sterone (RF=0.70) was eluted and analysed using a GC-MS spectrometer (Agilent 5973 N).
In the case of inhibition assays, microsomes were incubated for 35–45 min at 30 °C in the presence of 4α-carboxy-4β-methyl-cholest-8,24-dien-3β-ol (50–300 mM) and a range of inhibitor concentration (0.01–100 μM) from which a dose–response curve was obtained allowing the corresponding I50 values to be determined.
The GC-MS spectrometer (Agilent 5973 N) was equipped with an ‘on column' injector and a capillary column (30 × 0.25 mm) coated with DB5 (H2 flow rate of 2 ml min^−1). The temperature program included a 30 °C min^−1 increase from 60 °C to 240 °C, and followed by a 2 °C/min increase from 240 °C to 280 °C. The areas of the GC peaks of coprostanone (tR=1.000) and of the produced 4α-methyl-cholest-8,24-dien-3-one (tR=1.139), corrected from endogenous component of the same tR (1.139) determined in the blank (boiled microsomes), allowed the rate of transformation of 4α-carboxy-4β-methyl-cholest-8,24-dien-3β-ol to be measured. Under these conditions, the estimated limit of detection of the 3βHSD/D activity was 0.1 nmol h^−1 mg^−1.

## C[C@@H]1[C@H](O)[C@@H](C)/C=C/C=C/C=C/C=C/C=C/C=C/C=C/[C@H](O[C@@H]2O[C@H](C)[C@@H](O)[C@H](N)[C@@H]2O)C[C@@H]2O[C@](O)(C[C@@H](O)C[C@@H](O)[C@H](O)CC[C@@H](O)C[C@@H](O)CC(=O)O[C@H]1C)C[C@H](O)[C@H]2C(=O)O [Amphotericin B, reference compound]
F. solani
  amount of Amphotericin B required for maximal inhibition: halved

## CC(C)=CCC[C@@H](C)[C@H]1CC[C@H]2C3=C(CC[C@]12C)[C@@]1(C)CC[C@H](O)[C@@](C)(C(=O)O)C1CC3 (stereo partly drawn) [carboxysterol substrate, 4α-carboxy-4β-methyl-cholest-8,24-dien-3β-ol]
Erg26p [1]
  Km: 550 µM

## OC(Cn1cncn1)(Cn1cncn1)c1ccc(F)cc1F [fluconazole, reference compound]
[2]
  effect on 13C-labelled ergosterol: decrease
  effect on 13C-labelled lanosterol: accumulation
  effect on 13C-labelled zymosterol: decrease

## C=C(CCC(C)C1CCC2C1(C)CC(O)C13CC14C(=O)CC(O)C(C)(C(=O)NCc1ccccc1)C4C(=O)CC23O)C(C)C [Compound 1, (1R,2aR,3R,5aR,5bS,7aR,8S,9S,11aS,12aR)-N-benzyl-1,5b,9-trihydroxy-2a,8-dimethyl-3-((R)-6-methyl-5-methyleneheptan-2-yl)-7,11-dioxohexadecahydrocyclopenta[a]cyclopropa[e]phenanthrene-8-carboxamide]
[3]
  IC50: > 200 µM
Erg26p [4]
  IC50: > 500 µM
  decrease of inhibition relative to FR171456: > 300 fold

## C=C(CCC(C)C1CCC2C1(C)CC(O)C13CC14C(=O)CC(O)C(C)(C(=O)O)C4C(=O)CC23O)C(C)CO [Compound 2, (1R,2aR,3R,5aR,5bS,7aR,8S,9S,11aS,12aR)-1,5b,9-trihydroxy-3-((2R)-7-hydroxy-6-methyl-5-methyleneheptan-2-yl)-2a,8-dimethyl-7,11-dioxohexadecahydrocyclopenta[a]cyclopropa[e]phenanthrene-8-carboxylic acid]
[3]
  IC50: > 200 µM
